{"source": "patent US11013725B2", "about": "“Therapeutic agents for inner ear hearing impairment” (Keio University, priority 2015, dated 2021)", "key": {"neurons": {"test_system": "neurons", "details": "stated as known; cited from earlier work"}, "[1]": {"test_system": "inner ear cells derived from iPS cells of patients with Pendred syndrome", "test": "Apoptosis under epoxomicin cellular stress (Cleaved caspase 3 staining of pendrin-positive cells)", "assay_type": "cell-based, human", "experimental": "Pendrin-positive cells were induced from iPS cells derived from patients and iPS/ES cells derived from healthy subjects using the above method. The differentiation-induced cells were subjected to the following treatment. In the rapamycin administration group, rapamycin was administered for 3 days. In the cellular stress/rapamycin group, rapamycin (0.2 nM) was administered for 2 days and then epoxomicin (0.5 μM) was administered as cellular stress for 24 hours along with rapamycin. In the cellular stress group, DMSO was administered for 2 days and then only epoxomicin (0.5 μM) was administered as cellular stress for 24 hours. For fluorescent antibody staining, goat anti-pendrin antibody and rabbit anti-Cleaved Caspase 3 antibody were added (1:100 and 1:300, respectively) to the fixed cells on glass slides after antigen retrieval. Cell nuclei were then stained with Hoechst 33258 (diluted 1:1000). […] Pendrin-positive cells were induced from iPS cells derived from patients and iPS/ES cells derived from healthy subjects using the above method. The differentiation-induced cells were subjected to the following. In the rapamycin administration group, rapamycin was administered for 3 days. In the cellular stress/rapamycin group, rapamycin (0.2 nM) was administered for 2 days and then epoxomicin (0.5 μM) was administered as cellular stress for 24 hours along with rapamycin. In the cellular stress group, DMSO was administered for 2 days and then only epoxomicin (0.5 μM) was administered as cellular stress for 24 hours. […] For fluorescent antibody staining, goat anti-pendrin antibody and rabbit anti-Cleaved Caspase 3 antibody were added (1:100 and 1:300, respectively) to the fixed cells on glass slides after antigen retrieval. Cell nuclei were then stained with Hoechst 33258 (diluted 1:1000). […] Pendrin-positive cells were induced from iPS cells derived from patients and iPS/ES cells derived from healthy subjects using the above method. The differentiation-induced cells were subjected to the following treatment. In the calpeptin administration group, calpeptin was administered for 3 days. […]"}, "[2]": {"test_system": "inner ear cells derived from iPS cells of patients with Pendred syndrome", "test": "Measurement of cell viability under epoxomicin cellular stress (count of cells positive for pendrin but negative for Cleaved caspase 3)", "assay_type": "cell-based, human", "experimental": "Pendrin-positive cells were induced from iPS cells derived from patients and iPS/ES cells derived from healthy subjects using the above method. The differentiation-induced cells were subjected to the following treatment. In the rapamycin administration group, rapamycin was administered for 3 days. In the cellular stress/rapamycin group, rapamycin (0.2 nM) was administered for 2 days and then epoxomicin (0.5 μM) was administered as cellular stress for 24 hours along with rapamycin. In the cellular stress group, DMSO was administered for 2 days and then only epoxomicin (0.5 μM) was administered as cellular stress for 24 hours. For fluorescent antibody staining, goat anti-pendrin antibody and rabbit anti-Cleaved Caspase 3 antibody were added (1:100 and 1:300, respectively) to the fixed cells on glass slides after antigen retrieval. Cell nuclei were then stained with Hoechst 33258 (diluted 1:1000). […] Pendrin-positive cells were induced from iPS cells derived from patients and iPS/ES cells derived from healthy subjects using the above method. The differentiation-induced cells were subjected to the following treatment. In the rapamycin administration group, rapamycin was administered for 3 days. In the cellular stress/rapamycin group, rapamycin (0.2 nM) was administered for 2 days and then epoxomicin (0.5 μM) was administered as cellular stress for 24 hours along with rapamycin. […]"}, "[3]": {"test_system": "differentiation-induced inner ear sensory epithelial cells", "test": "Administration of gentamicin to differentiation-induced inner ear sensory epithelial cells (cytotoxicity, number of cells)", "assay_type": "cell-based, human", "details": "gentamicin injection diluted 80 times, administered for 10 days; FIG. 7", "procedure": "(1-5) Administration of Gentamicin Known to Have Inner Ear Toxicity to Differentiation-Induced Inner Ear Sensory Epithelial Cells\nA gentamicin injection diluted 80 times was administered for 10 days to the inner ear sensory epithelial cells whose differentiation had been induced using this method."}}}
{"compound": "CCCC[C@@H](C=O)NC(=O)[C@H](CC(C)C)NC(=O)OCc1ccccc1", "note": "[Calpeptin]", "values": [{"measurement": "apoptosis of neurons in neurodegenerative diseases and the like", "setting": "neurons", "value": "known to inhibit apoptosis of neurons"}, {"measurement": "apoptosis when cells are stressed", "setting": "[1]; calpeptin 0.5 nM for 2 days, then epoxomicin 0.5 μM for 24 hours along with calpeptin, FIG. 14, reference example", "value": "cannot inhibit apoptosis"}]}
{"compound": "CN(C)C(=N)NC(=N)N", "note": "[metformin]", "values": [{"measurement": "apoptosis when cells are stressed", "setting": "[1]; 1 mM or 10 mM metformin for 2 days, then epoxomicin 0.5 μM for 24 hours along with metformin, FIG. 13", "value": "inhibits apoptosis"}, {"measurement": "decrease in the cell viability when cells are stressed", "setting": "[2]; 1 mM or 10 mM metformin for 2 days, then epoxomicin 0.5 μM for 24 hours along with metformin, FIG. 12", "value": "suppresses the decrease in the cell viability"}]}
{"compound": "gentamicin", "values": [{"measurement": "number of cells as compared with a control group (cytotoxicity)", "setting": "[3]", "value": "significantly decreased"}]}
{"compound": "CO[C@H]1C[C@@H]2CC[C@@H](C)[C@@](O)(O2)C(=O)C(=O)N2CCCC[C@H]2C(=O)O[C@H]([C@H](C)C[C@@H]2CC[C@@H](O)[C@H](OC)C2)CC(=O)[C@H](C)/C=C(\\C)[C@@H](O)[C@@H](OC)C(=O)[C@H](C)C[C@H](C)/C=C/C=C/C=C/1C", "note": "[rapamycin]", "values": [{"measurement": "apoptosis when cells are stressed (cells positive for pendrin and Cleaved caspase 3)", "setting": "[1]; rapamycin 0.2 nM for 2 days, then epoxomicin 0.5 μM for 24 hours along with rapamycin, FIG. 11", "value": "inhibits such apoptosis"}, {"measurement": "decrease in cell viabilities when cells are stressed", "setting": "[2]; rapamycin 0.2 nM for 2 days, then epoxomicin 0.5 μM for 24 hours along with rapamycin, FIG. 10", "value": "suppresses decrease in cell viabilities"}]}
